# Test results: patent US20180066064A1, “BIOTHERAPEUTICS TARGETING GPR158 FOR CANCER” (University of Southern California, priority 2015, published 2018)
# Key:
# [1] = tested on: GPR158 driven by a doxycycline inducible promoter; AR, PSA; experiment: Dox induction in lenti-GPR158 LNCaP cells (western blotting); format: cell-based, human
# lenti-GPR158 LNCaP cells = experiment: Cell counting of lenti-GPR158 LNCaP cells after Dox treatment; format: cell-based, human; details: Dox 100 ng/mL
# [2] = tested on: GPR158, AR and PSA expression in C4-2B cells; details: DHT 10 nM
# Experimental: (§1) FIG. 2: Effects of an androgen on GPR158 expression. […] Total RNA (FIG. 2A-FIG. 2C) or cell lysates (FIG. 2E-FIG. 2G) were isolated and subjected to qRT-PCR and western blotting, respectively to estimate AR, PSA, GPR158 and beta-actin expression. […] Total RNA or the whole cell lysates were isolated and qRT-PCR and western blotting was performed, respectively to detect GPR158, AR, PSA and beta-actin levels (FIG. 2D) The mRNA level of the above indicated genes was considered 1 in cells grown in 10% FCS for calculating the relative fold difference of these genes in other experimental conditions. (FIG. 2A-FIG. 2H) The data represent three independent experiments.
# (§2) For androgen starvation studies, LNCaP, PC-3, and DU145 cells were grown in 10% CSS.
# (§3) Total RNA isolated from PCa cell lines with Aurum total RNA mini kit (Bio-Rad, Hercules, Calif.) was subjected to qRT-PCR analysis using iScript one-step RT-PCR kit with SYBR Green (Bio-Rad) on CFX96 Touch Real-Time PCR Detection System (Bio-Rad), according to the manufacturer's instructions. Relative quantification values of genes of interest were calculated as 2^−ΔΔCt by the comparative Ct method, where ΔΔCt=(Ct target mRNA of treated sample-Ct reference gene of treated sample)-(Ct target mRNA of control sample-Ct reference gene of control sample). The Inventors used beta-actin or GAPDH as a reference gene.
# (§4) The whole cell lysates were prepared using radioimmunoprecipitation assay (RIPA) lysis buffer (50 mM Tris, 150 mM NaCl, 0.1% SDS, 0.5% Sodium Deoxycholate, 1% NP-40) spiked with a cocktail of protease inhibitors for 20 min, followed by centrifugation at 10,000 g for 10 min. Supernatants were collected and proteins in the extracts were separated by SDS-PAGE without boiling the samples and transferred to PVDF membranes. Membranes were probed with primary antibody against protein of interest and were developed by chemiluminescence with reagents Luminol enhancer solution and peroxide solution (GE Healthcare UK limited, Buckinghamshire, UK) and images were captured with Fujifilm imaging system (LAS-4000; Fujifilm, Tokyo, Japan). Protein loading was monitored by stripping and reprobing of the membrane with beta-actin antibody.
# [3] = tested on: GPR158, AR and PSA expression in LNCaP cells; details: DHT 10 nM
# Experimental: as §1, §2, §3, §4
# [4] = tested on: GPR158, AR and PSA expression in PHPECs; details: DHT 10 nM
# Experimental: as §1, §2, §3, §4
SMILES,"induction of GPR158 protein ([1]; Dox 100 ng/mL, at 4, 6 and 8 days (data not shown))","increase in GPR158 protein levels ([1]; Dox 500 ng/mL, 3 days)","increase in cell numbers (lenti-GPR158 LNCaP cells; 3 days, normalized for Dox alone on parental cells)","increase in cell numbers (growth curve) (lenti-GPR158 LNCaP cells; at 4, 6 and 8 days vs untreated)","effect on GPR158 mRNA and protein levels ([2]; C4-2B cells, 10% CSS)",AR protein stabilization ([2]; C4-2B),PSA mRNA and protein levels ([2]; C4-2B),"increase of GPR158 mRNA and protein levels ([3]; LNCaP cells, 24 hrs, 10% CSS)",PSA mRNA and protein levels ([3]; LNCaP),"AR protein stabilization ([3]; LNCaP, 12 hrs)",PSA mRNA and protein levels ([4]; PHPEC),"AR protein stabilization ([4]; PHPEC, 12 hrs)","increase of GPR158 mRNA and protein levels ([4]; PHPECs, 24 hrs, 10% CSS)"
"C[C@H]1c2cccc(O)c2C(=O)C2=C(O)[C@]3(O)C(=O)C(C(N)=O)=C(O)[C@@H](N(C)C)[C@@H]3[C@@H](O)[C@@H]21 [Dox, doxycycline]",3 fold,~6 fold,2.25 fold,approximately 2 fold,–,–,–,–,–,–,–,–,–
"C[C@]12CCC(=O)C[C@@H]1CC[C@@H]1[C@@H]2CC[C@]2(C)[C@@H](O)CC[C@@H]12 [DHT, dihydrotestosterone]",–,–,–,–,no effect,not in C4-2B cells,increased significantly,3-4 fold,increased significantly,AR protein stabilization,increased significantly,AR protein stabilization,3-4 fold
